Measurements as given in patent publication US5372944A, “Method for conversion of halogenated hydrocarbons to halohydrins” (The Dow Chemical Company, priority 1993, dated 1994).

Assays:
TDTM-003-60-2-11 [1] = test: Dehalogenation by double mutant strain TDTM-003-60-2-11 in shake flask with bulb feeder; format: cell-based, Rhodococcus sp.; details: after 120 hours
Description: For gas chromatography (GC) analysis of halogenated metabolites, cultures were centrifuged briefly to remove cells, saturated with sodium sulfate, and an equivalent volume of methylene chloride added. The suspension was vortexed vigorously, centrifuged to break the emulsion and the methylene chloride phase removed.
Analysis of all halocarbon substrates and products from culture broths was done by GC using a Hewlett Packard 5710 equipped with a 7671A Autoinjector with the following protocol:
Dehalogenation of 1,2-dichloropropane by the double mutant strain of Rhodococcus sp., designated TDTM-003-60-2-11 was assayed in the following manner: 5 mL of an overnight culture (16 hours) were used as inoculum for 50 mL MM1X4P containing 5 g/L disodium succinate in a 250 mL flask. At 4 and 8 hours growth, 10 μL of 1-chlorobutane was added to induce the dehalogenase enzyme. Following 24 hours of growth, cells were harvested by centrifugation, resuspended into 50 mL of fresh MM1X4P, and transferred to a sterile 250 mL shake flask equipped with a bulb feeder. To the bulb feeder was added 1,2-dichloropropane and incubation continued at 28° C. and 150 rpm. […] The production of halohydrin products was monitored by gas chromatography. 1 -Chloro-2-propanol and 2-chloro-1-propanol accumulate linearly in the culture broth to 74 parts-per-million (ppm) (w/v) and 20 ppm (w/v) respectively after 120 hours. The overall rate of halohydrin production is 0.60 mg/g dry cells/hr.
The procedure described in Example 6 was followed except 1,2-dichlorobutanereplaced 1-chlorobutane in the bulb feeder.
The procedure described in Example 6 was followed except 1,2,3-trichloropropane replaced 1-chlorobutane in the bulb feeder.

TDTM-003 = test: Utilization of carbon containing compounds for growth in liquid culture, TDTM-003; format: cell-based, Rhodococcus species; details: liquid culture
TDTM-003-60-2-11 [2] = test: Utilization of carbon containing compounds for growth in liquid culture, TDTM-003-60-2-11; format: cell-based, Rhodococcus species ATCC 55388;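 note: minus means no visible growth and plus means good growth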
Description: A representative double mutant designated TDTM-003-60-2-11, made by the above example was deposited at the American Type Culture Collection on Jan. 28, 1993 and given the ATCC designation 55388.

[3] = test system: dehalogenase in cell free extracts of Rhodococcus Rhodochrous, TDTM-003; test: Primary screen of dehalogenase activity in cell free extracts of TDTM-003; format: biochemical
Experimental: Following overnight growth, 50 μl of 1-chlorobutane was added to induce the dehalogenase. After 24 hours induction, cells were harvested by centrifugation, resuspended in cold 10mM Tris sulfate/1 mM disodium EDTA, pH=7.5, and disrupted by sonication. Cell debris was removed by centrifugation at 10,000 rpm for 30 minutes, cell free extracts dialyzed overnight against the same buffer, and assayed without dilution for dehalogenase activity.
Free chloride or bromide was assayed qualitatively using a chloride electrode (Orion), or quantitatively using the colorimetric method (430 nm) described by J. G. Bergmann, et al., Anal. Chem., 29:241-243 (1957).
(§1) Hydrolytic dehalogenase enzyme activity was evaluated by adding an appropriate amount of cell free extract or enzyme preparation to 5.0 mL of 100 mM glycine buffer, pH=9.0 in a 7 mL glass vial. The halogenated substrate (5.0 μl) and a small stir bar were added, and the vial capped. Reaction was initiated by transfer to a 30° C. water bath equipped with a magnetic stirrer. Periodically 1.0 mL samples were removed and assayed for free halide. Rates were determined after correcting for non-enzymatic hydrolysis with an appropriate blank. A standard curve was prepared using sodium chloride.
Preliminary studies were performed on cell free extracts of TDTM-003 to evaluate the enzyme substrate selectivity, and the results of this study are shown in Table 2.

[4] = target: partially purified TDTM-003 dehalogenase (Rhodococcus sp. TDTM0003, UniProt P59336); test: Substrate profile of partially purified TDTM-003 dehalogenase; format: biochemical, Rhodococcus species TDTM-003; details: corrected for non-enzymatic hydrolysis
Chain of partially purified TDTM-003 dehalogenase (P59336 whole entry): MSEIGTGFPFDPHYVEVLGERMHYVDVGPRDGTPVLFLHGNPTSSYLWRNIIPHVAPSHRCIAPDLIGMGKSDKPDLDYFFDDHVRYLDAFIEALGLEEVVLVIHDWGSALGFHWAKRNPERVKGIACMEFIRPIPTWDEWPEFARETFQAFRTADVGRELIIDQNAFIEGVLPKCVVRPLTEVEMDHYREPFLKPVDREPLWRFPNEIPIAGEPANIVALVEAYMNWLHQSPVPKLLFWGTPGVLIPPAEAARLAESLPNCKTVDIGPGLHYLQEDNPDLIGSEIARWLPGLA
Experimental: as §1
Frozen pellets from 2 liters of culture were thawed into 150 mL of 10 mM Tris sulfate buffer, pH=7.5 containing 1 mM disodium EDTA. This buffer was used throughout the entire purification. The suspension was sonicated for approximately 1 hour with ice cooling using a Microson Ultrasonic Cell Disrupter and centrifuged at 10,000 rpm for 15 minutes to remove cell debris. Supernatant was removed and the sonication/centrifugation repeated with fresh buffer to increase enzyme yield. Overall sonication efficiency was monitored by absorbence at 280 nm. Cell free extracts were combined and brought slowly to 30 percent saturation with solid ammonium sulfate. The suspension was centrifuged at 10,000 rpm for 30 minutes and the pellet discarded. The supernatant was brought to 70 percent saturation with solid ammonium sulfate and centrifugation repeated. Supernatant was discarded and the pellet taken up in a small volume of buffer and dialyzed overnight against 1 liter of the same. The preparation was applied to a 1.5×15cm column of DEAE-Sephadex equilibrated with the same buffer elution carried out with a 1 liter gradient from 0 to 400 mM ammonium sulfate. Fractions of about 7-8 mLs were collected. The active fractions were pooled and brought to 90 percent saturation with ammonium sulfate. The pellet was taken up in a minimal amount of buffer, ultrafiltered to 2.5 mL using 10,000 MWCO Novacell Ultrafiltration cell, and applied to a 1.5×90 cm Sephadex G-100 column. Elution was by gravity at 90 cm and fractions of 7-8 mLs were collected. Active fractions were poled, brought to 30 percent saturation with ammonium sulfate, and applied to a 10 ml column of Butyl-agarose equilibrated in the same. Elution was performed with a 500 mL gradient from 30 percent-0 percent ammonium sulfate. Active fractions were pooled, dialyzed and used for substrate selectivity studies.
To evaluate the substrate selectivity of haloalkane dehalogenase from isolated Rhodococcus species, an enzyme preparation from the strain designated TDTM-003 was purified by the procedure described under General Experimental. This preparation provided a dehalogenase which was approximately 50 percent pure as estimated by SDS-PAGE and was free of interfering halohydrin dehalogenase activity.
The activity of this partially purified TDTM-003 dehalogenase preparation was evaluated against various chlorinated and brominated substrates. Each enzymatic rate was corrected for non-enzymatic hydroloysis.

Row | Compound | Relative Rate of Chloride Release, 1-chlorobutane = 100 [3] | Relative Rate of Halogen Release, 1-Chlorobutane = 100 [4] | further results
1 | OCC(Cl)CCl (stereo not drawn) [2,3-dichloro-1-propanol] |  |  | halohydrin accumulated in culture broth (TDTM-003-60-2-11 [1]; substrate 1,2,3-trichloropropane): 211 ppm (w/v)
2 | Dextrin |  |  | Utilization of carbon source for growth, TDTM-003 (TDTM-003): -; Utilization of carbon source for growth, TDTM-003-60-2-11 (TDTM-003-60-2-11 [2]): -
3 | CC(Cl)C(C)Cl (stereo not drawn) [2,3-dichlorobutane] | 73 | 19.000 | 
4 | CCCBr [1-bromopropane] |  | 459.000 | 
5 | CC(C)CCl [1-chloro-2-methylpropane] | 117 |  | 
6 | ClCCCCCl [1,4-dichlorobutane] | 178 | 261.000 | 
7 | ClCCCCCCCl [1,6-dichlorohexane] | 169 | 252.000 | 
8 | O=C(O)c1cccc(O)c1 [m-OH Benz] |  |  | Utilization of carbon source for growth, TDTM-003 (TDTM-003): -; Utilization of carbon source for growth, TDTM-003-60-2-11 (TDTM-003-60-2-11 [2]): -
9 | ClCCCCCCCCCCCl [1,10-dichlorodecane] | 124 | 52.000 | 
10 | CCC(O)CCl (stereo not drawn) [1-Chloro-2-butanol] |  |  | halohydrin accumulated in culture broth (TDTM-003-60-2-11 [1]; substrate 1,2-dichlorobutane): 6.5 ppm (w/v)
11 | ClCCCl [1,2-dichloroethane] | 2.8 | 4.400 | 
12 | ClCCBr [1-bromo-2-chloroethane] |  | 751.000 | 
13 | CC(Cl)CO (stereo not drawn) [2-chloro-1-propanol] |  |  | halohydrin accumulated in culture broth (TDTM-003-60-2-11 [1]; substrate 1,2-dichloropropane): 20 ppm (w/v)
14 | CCCCCCCCCl [1-chlorooctane] | 159 | 58.000 | 
15 | CCCCl [1-chloropropane] | 57 | 33.000 | 
16 | CC(Br)CBr (stereo not drawn) [1,2-dibromopropane] |  | 900.000 | 
17 | CC(C)Br [2-Bromopropane] |  | 55.000 | 
18 | Phenylacetate |  |  | Utilization of carbon source for growth, TDTM-003 (TDTM-003): +; Utilization of carbon source for growth, TDTM-003-60-2-11 (TDTM-003-60-2-11 [2]): -
19 | BrCCCCCCBr [1,6-dibromohexane] |  | 244.000 | 
20 | CCCCBr [1-bromobutane] | 362 | 265.000 | 
21 | O=C[C@H](O)[C@@H](O)[C@H](O)[C@H](O)CO [Glucose] |  |  | Utilization of carbon source for growth, TDTM-003-60-2-11 (TDTM-003-60-2-11 [2]): + +
22 | O=C(O)c1ccc(O)cc1 [p-OH-Benz] |  |  | Utilization of carbon source for growth, TDTM-003 (TDTM-003): -; Utilization of carbon source for growth, TDTM-003-60-2-11 (TDTM-003-60-2-11 [2]): -
23 | CCCCCl [1-chlorobutane] | 100 | 100.000 | 
24 | ClC1CCCCC1 [chlorocyclohexane] |  | 7.500 | 
25 | Inulin |  |  | Utilization of carbon source for growth, TDTM-003 (TDTM-003): -; Utilization of carbon source for growth, TDTM-003-60-2-11 (TDTM-003-60-2-11 [2]): -
26 | OC(CCl)CCl [1,3-dichloro-2-propane] |  |  | Utilization of carbon source for growth, TDTM-003 (TDTM-003): +/-; Utilization of carbon source for growth, TDTM-003-60-2-11 (TDTM-003-60-2-11 [2]): -
27 | O=C(O)[C@H](O)[C@@H](O)[C@H](O)[C@H](O)CO [Gluconate] |  |  | Utilization of carbon source for growth, TDTM-003 (TDTM-003): ++; Utilization of carbon source for growth, TDTM-003-60-2-11 (TDTM-003-60-2-11 [2]): ++
28 | BrCCCCCCCCBr [1,8-dibromooctane] |  | 173.000 | 

Row | Compound | Relative Rate of Chloride Release, 1-chlorobutane = 100 [3] | Relative Rate of Halogen Release, 1-Chlorobutane = 100 [4] | further results
29 | ClCCCCCCl [1,5-dichloropentane] | 112 | 173.000 | 
30 | CC(Br)CCBr (stereo not drawn) [1,3-dibromobutane] |  | 155.000 | 
31 | CCC(N)C(=O)O (stereo not drawn) [Aminobutyrate] |  |  | Utilization of carbon source for growth, TDTM-003 (TDTM-003): +; Utilization of carbon source for growth, TDTM-003-60-2-11 (TDTM-003-60-2-11 [2]): +
32 | CC(C)(C)Cl [2-chloro-2-methylpropane] | 2917 |  | 
33 | CC(Br)C(C)Br (stereo not drawn) [2,3-dibromobutane] |  | 846.000 | 
34 | CCCCCCCCCCCl [1-chlorodecane] |  | 28.000 | 
35 | OCC(Cl)CCl (stereo not drawn) [2,3-dichloro-1-propane] |  |  | Utilization of carbon source for growth, TDTM-003 (TDTM-003): + /-; Utilization of carbon source for growth, TDTM-003-60-2-11 (TDTM-003-60-2-11 [2]): -
36 | BrCCCCBr [1,4-dibromobutane] |  | 294.000 | 
37 | CCCCCCBr [1-bromohexane] |  | 162.000 | 
38 | CCCCCCCCCCBr [1-bromodecane] |  | 98.000 | 
39 | CCCCCCCCBr [1-bromooctane] |  | 414.000 | 
40 | CCCCCCl [1-chloropentane] | 109 | 81.000 | 
41 | CCCCCCCl [1-chlorohexane] | 136 | 119.000 | 
42 | CC(C)(Cl)CCl [1,2-dichloro-2-methylpropane] | 300 | 0.000 | 
43 | CCC(Cl)CO (stereo not drawn) [2-chloro-1-butanol] |  |  | halohydrin accumulated in culture broth (TDTM-003-60-2-11 [1]; substrate 1,2-dichlorobutane): 265 ppm (w/v)
44 | CC(Cl)CCCl (stereo not drawn) [1,3-dichlorobutane] | 63 | 81.000 | 
45 | ClCCCCl [1,3-dichloropropane] | 203 | 253.000 | 
46 | CCC(Br)CBr (stereo not drawn) [1,2-dibromobutane] |  | 756.000 | 
47 | BrCCCBr [1,3-dibromopropane] |  | 771.000 | 
48 | CCC(C)Cl (stereo not drawn) [2-chlorobutane] | 65 | 20.000 | 
49 | CCCCCCCCl [1-chloroheptane] |  | 130.000 | 
50 | CC(C)(Cl)Cl [2,2-dichloropropane] |  | 23.000 | 
51 | CC(O)CCl (stereo not drawn) [1-chloro-2-propanol] |  |  | halohydrin accumulated in culture broth (TDTM-003-60-2-11 [1]; substrate 1,2-dichloropropane): 74 ppm (w/v)
52 | CCC(C)Br (stereo not drawn) [2-bromobutane] |  | 123.000 | 
53 | CCCCCBr [1-bromopentane] |  | 203.000 | 
54 | Glycogen |  |  | Utilization of carbon source for growth, TDTM-003 (TDTM-003): +; Utilization of carbon source for growth, TDTM-003-60-2-11 (TDTM-003-60-2-11 [2]): +
55 | BrCCBr [1,2-dibromoethane] |  | 1318.000 | 
